Source: US12662475B2, “Difluorocyclohexyl derivatives as IL-17 modulators” (UCB BIOPHARMA SRL, priority 2020, dated 2026)

Experiments:
[1] = system: IL-17 induced IL-6 release from human dermal fibroblasts; test: Inhibition of IL-17A induced IL-6 release from dermal fibroblast cell line (HDF cell line assay); assay type: cell-based
Outline: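 Human dermal fibroblasts stimulated with IL-17A; compounds pre-incubated with cytokine for 1 h or 5 h at 37° C., then added to cells for 18-20 h at 37° C./5% CO2 ([…]). Released IL-6 quantified by HTRF with Eu-Cryptate and d2/XL665-labelled antibodies.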

[2] = biological target: T1, interaction between IL-17A and soluble IL-17 Receptor A (IL-17RA) (Homo sapiens, UniProt Q16552); test: IL-17 FRET assay; conditions: IL-17A binding to IL-17RA
T1 construct: made in house; host or cells: IL-17A-Fc: CHO SXE cells; IL-17RA: Expi HEK293 cells
T1 sequence (Q16552 24-155): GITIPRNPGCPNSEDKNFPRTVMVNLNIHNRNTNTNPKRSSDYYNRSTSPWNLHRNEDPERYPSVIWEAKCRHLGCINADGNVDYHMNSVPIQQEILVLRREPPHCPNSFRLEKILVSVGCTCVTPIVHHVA
Description: The purpose of this assay is to test the ability of compounds to disrupt the interaction between IL-17A and soluble IL-17 Receptor A (IL-17RA). The ability of a compound to inhibit IL-17A binding to IL-17RA is measured in this assay.
An IL-17AA-TEV-Human Fc construct was expressed in a CHO SXE cell system and purified by protein A chromatography and size exclusion. The protein was labelled with an amine reactive AlexaFluor 647 dye (Thermo Fisher #A20006), as per manufacturer's instruction.
Soluble IL-17RA (33-317)-HKH-TEV-Fc was expressed in an Expi HEK293 cell system and purified by protein A chromatography and size exclusion. The Fc tag was cleaved by TEV, producing IL-17RA (33-317)-HKH, and the protein was labelled with amine reactive terbium (Thermo Fisher #PV3581).
In assay buffer [Dulbecco's PBS (Sigma #14190-094), 0.05% P20 (Thermo Scientific #28320), 1 mg/mL BSA (Sigma #A2153-500G)] the following solutions were prepared:
• IL-17A-Fc-AF647 at 5 nM • IL-17RA-HKH-Tb at 5 nM
Compounds were serially diluted in DMSO before receiving an aqueous dilution into a 384 well dilution plate (Greiner #781281), to give a 25% DMSO solution.
IL-17A (10 μL) was added to a black low volume assay plate (Costar #4511) and diluted compound (5 μL) was transferred from the aqueous dilution plate. The cytokine and compound were allowed to incubate for 1 h, then IL-17RA (10 μL) was added. The plates were wrapped in foil and incubated at room temperature for 18-20 h with gentle shaking (<400 rpm) before being read on a Perkin Elmer Envision plate reader (Excitation: 330 nm; Emission 615/645 nm).
The final assay concentrations were IL-17A-AF647 2 nM and IL-17RA-Tb 2 nM, 5% DMSO.

| SMILES | IC50 ([1]; Incubation Time 5 h) [nM] | IC50 [2] [nM] | IC50 ([1]; Incubation Time 1 h) [nM] |
| --- | --- | --- | --- |
| Cn1nccc1C(=O)N[C@H](c1nc2c(F)c(C(CC(F)(F)F)C(=O)N3CC(F)(F)C3)ccc2[nH]1)C1CCC(F)(F)CC1 (stereo partly drawn) [Example 8, N—[(S)-{5-[1-(3,3-Difluoroazetidine-1-carbonyl)-3,3,3-trifluoropropyl]-4-fluoro-1H-benzimidazol-2-yl}(4,4-difluorocyclohexyl)methyl]-2-methylpyrazole-3-carboxamide] | 25.1 | 100 |  |
| [2H]C([2H])([2H])n1nccc1C(=O)N[C@H](c1nc2c(F)c(C3(C(=O)N4CC(F)(F)C4)CC(F)(F)C3)ccc2[nH]1)C1CCC(F)(F)CC1 [Example 18, N—[(S)-{5-[1-(3,3-Difluoroazetidine-1-carbonyl)-3,3-difluorocyclobutyl]-4-fluoro-1H-benzimidazol-2-yl}(4,4-difluorocyclohexyl)methyl]-2-(trideuteriomethyl)pyrazole-3-carboxamide] |  | 158 | 79.4 |
| Cc1nonc1C(=O)N[C@H](c1nc2c(F)c(C3(C(=O)N4CC(F)(F)C(F)(F)C4)CCOCC3)ccc2[nH]1)C1CCC(F)(F)CC1 [Example 19, N—[(S)-(4,4-Difluorocyclohexyl){4-fluoro-5-[4-(3,3,4,4-tetrafluoropyrrolidine-1-carbonyl)tetrahydropyran-4-yl]-1H-benzimidazol-2-yl}methyl]-4-methyl-1,2,5-oxadiazole-3-carboxamide] | 3.98 | 12.6 |  |
| COC(=O)N1CC[C@@](C(=O)N2CC(F)(F)C(F)(F)C2)(c2ccc3[nH]c([C@@H](NC(=O)c4nonc4C)C4CCC(F)(F)CC4)nc3c2F)C1 (single isomer, unassigned) [Example 2] | 10 | 39.8 |  |
| Cc1nonc1C(=O)N[C@H](c1nc2nc(C3(C(=O)NCC4CC4(F)F)CCOCC3)ccc2[nH]1)C1CCC(F)(F)CC1 (stereo partly drawn) [Example 24, N—[(S)-(4,4-Difluorocyclohexyl)(5-{4-[(2,2-difluorocyclopropyl)methylcarbamoyl]-tetrahydropyran-4-yl}-1H-imidazo[4,5-b]pyridin-2-yl)methyl]-4-methyl-1,2,5-oxadiazole-3-carboxamide] | 6.31 | 25.1 |  |
| Cc1nonc1C(=O)N[C@H](c1nc2c(F)c([C@H](CC(F)F)C(=O)N3CC(F)(F)C3)ccc2[nH]1)C1CCC(F)(F)CC1 (single isomer, unassigned) [Example 4] | 15.8 | 39.8 |  |
| Cc1nonc1C(=O)N[C@H](c1nc2c(F)c(C3(C(=O)N4CC(F)(F)C4)CCNCC3)ccc2[nH]1)C1CCC(F)(F)CC1 [Example 16, N—[(S)-{5-[4-(3,3-Difluoroazetidine-1-carbonyl)piperidin-4-yl]-4-fluoro-1H-benzimidazol-2-yl}(4,4-difluorocyclohexyl)methyl]-4-methyl-1,2,5-oxadiazole-3-carboxamide] | 79.4 | 126 |  |
